Results reported in paper PMC11277489, “Novel Piperazine Derivatives of Vindoline as Anticancer Agents” (International Journal of Molecular Sciences, 2024).
Read-outs that look alike come from different tables or passages of the source.

Experiments:
Type in all cases: cell-based
HCT-116 = experiment: NCI60 five-dose screen, Colon Cancer; conditions: Homo sapiens; HCT-116, Colon Cancer; five-dose screen; read-out: GI50
SNB-19 = experiment: NCI60 five-dose screen, CNS Cancer; conditions: Homo sapiens; SNB-19, CNS Cancer; five-dose screen; read-out: GI50
SK-MEL-28 = experiment: NCI60 five-dose screen, Melanoma; conditions: Homo sapiens; SK-MEL-28, Melanoma; five-dose screen; read-out: GI50
HT29 = experiment: NCI60 five-dose screen, Colon Cancer; conditions: Homo sapiens, HT-29; HT29, Colon Cancer; five-dose screen; read-out: GI50
HOP-62 = experiment: NCI60 five-dose screen, Non-small Cell Lung Cancer; conditions: Homo sapiens; HOP-62, Non-small Cell Lung Cancer; five-dose screen; read-out: GI50
MOLT-4 = experiment: NCI60 five-dose screen, Leukemia; conditions: Homo sapiens; MOLT-4, Leukemia; five-dose screen; read-out: GI50
UACC-62 = experiment: NCI60 five-dose screen, Melanoma; conditions: Homo sapiens; UACC-62, Melanoma; five-dose screen; read-out: GI50
COLO 205 = experiment: NCI60 five-dose screen, Colon Cancer; conditions: Homo sapiens; COLO 205, Colon Cancer; five-dose screen; read-out: GI50
SNB-75 = experiment: NCI60 five-dose screen, CNS Cancer; conditions: Homo sapiens; SNB-75, CNS Cancer; five-dose screen; read-out: GI50
NCI-H226 = experiment: NCI60 five-dose screen, Non-small Cell Lung Cancer; conditions: Homo sapiens; NCI-H226, Non-small Cell Lung Cancer; five-dose screen; read-out: GI50
SK-MEL-2 = experiment: NCI60 five-dose screen, Melanoma; conditions: Homo sapiens; SK-MEL-2, Melanoma; five-dose screen; read-out: GI50
CCRF-CEM = experiment: NCI60 five-dose screen, Leukemia; conditions: Homo sapiens, Leukemia, five-dose screen, read-out: GI50
EKVX = experiment: NCI60 five-dose screen, Non-small Cell Lung Cancer; conditions: Homo sapiens, Non-small Cell Lung Cancer, five-dose screen, read-out: GI50
UACC-257 = experiment: NCI60 five-dose screen, Melanoma; conditions: Homo sapiens; UACC-257, Melanoma; five-dose screen; read-out: GI50
SK-OV-3 = experiment: NCI60 five-dose screen, Ovarian Cancer; conditions: Homo sapiens; SK-OV-3, Ovarian Cancer; five-dose screen; read-out: GI50
HOP-92 = experiment: NCI60 five-dose screen, Non-small Cell Lung Cancer; conditions: Homo sapiens; HOP-92, Non-small Cell Lung Cancer; five-dose screen; read-out: GI50
[1] = test system: 60 human tumor cell lines (NCI60); experiment: NCI60 five-dose screen, whole panel and sub-panel means; conditions: Homo sapiens
SF-295 = experiment: NCI60 five-dose screen, CNS Cancer; conditions: Homo sapiens; SF-295, CNS Cancer; five-dose screen; read-out: GI50
NCI-H322M = experiment: NCI60 five-dose screen, Non-small Cell Lung Cancer; conditions: Homo sapiens, Non-small Cell Lung Cancer, five-dose screen, read-out: GI50
A498 = experiment: NCI60 five-dose screen, Renal Cancer; conditions: Homo sapiens; A498, Renal Cancer; five-dose screen; read-out: GI50
SN12C = experiment: NCI60 five-dose screen, Renal Cancer; conditions: Homo sapiens, Renal Cancer, five-dose screen, read-out: GI50
RPMI-8226 = experiment: NCI60 five-dose screen, Leukemia; conditions: Homo sapiens; RPMI-8226, Leukemia; five-dose screen; read-out: GI50
MALME-3M = experiment: NCI60 five-dose screen, Melanoma; conditions: Homo sapiens; MALME-3M, Melanoma; five-dose screen; read-out: GI50
786–0 = experiment: NCI60 five-dose screen, Renal Cancer; conditions: Homo sapiens; 786–0, Renal Cancer; five-dose screen; read-out: GI50
MCF7 = experiment: NCI60 five-dose screen, Breast Cancer; conditions: Homo sapiens; MCF7, Breast Cancer; five-dose screen; read-out: GI50
UO-31 = experiment: NCI60 five-dose screen, Renal Cancer; conditions: Homo sapiens; UO-31, Renal Cancer; five-dose screen; read-out: GI50
CAKI-1 = experiment: NCI60 five-dose screen, Renal Cancer; conditions: Homo sapiens; CAKI-1, Renal Cancer; five-dose screen; read-out: GI50
KM12 = experiment: NCI60 five-dose screen, Colon Cancer; conditions: Homo sapiens; KM12, Colon Cancer; five-dose screen; read-out: GI50
OVCAR-8 = experiment: NCI60 five-dose screen, Ovarian Cancer; conditions: Homo sapiens; OVCAR-8, Ovarian Cancer; five-dose screen; read-out: GI50
SF-539 = experiment: NCI60 five-dose screen, CNS Cancer; conditions: Homo sapiens; SF-539, CNS Cancer; five-dose screen; read-out: GI50
RXF 393 = experiment: NCI60 five-dose screen, Renal Cancer; conditions: Homo sapiens, RXF 393, Renal Cancer
NCI-H522 = experiment: NCI60 five-dose screen, Non-small Cell Lung Cancer; conditions: Homo sapiens; NCI-H522, Non-small Cell Lung Cancer; five-dose screen; read-out: GI50
DU-145 = experiment: NCI60 five-dose screen, Prostate Cancer; conditions: Homo sapiens; DU-145, Prostate Cancer; five-dose screen; read-out: GI50
NCI-H23 = experiment: NCI60 five-dose screen, Non-small Cell Lung Cancer; conditions: Homo sapiens; NCI-H23, Non-small Cell Lung Cancer; five-dose screen; read-out: GI50

SMILES: CC[C@]12C=CCN3CC[C@@]4(c5ccc(OC)cc5N(C)[C@H]4[C@@](O)(C(=O)OC)[C@@H]1OC(=O)CCCN1CCN(Cc4ccc(C(F)(F)F)cc4)CC1)[C@@H]32 [Compound 23]
- GI50 (HCT-116): 1700 nM
- GI50 (SNB-19): 1580 nM
- GI50 (SK-MEL-28): 1620 nM
- GI50 (HT29): 1660 nM
- GI50 (HOP-62): 1740 nM
- GI50 (MOLT-4): 1150 nM
- GI50 (UACC-62): 1660 nM
- GI50 (COLO 205): 1580 nM
- GI50 (SNB-75): 1450 nM
- GI50 (NCI-H226): 2040 nM
- GI50 (SK-MEL-2): 1780 nM
- GI50 (CCRF-CEM): 2040 nM
- GI50 (EKVX): 1700 nM
- GI50 (UACC-257): 1740 nM
- GI50 (SK-OV-3): 2000 nM
- GI50 (HOP-92): 1510 nM
- GI50 ([1]; 60 cell, mean over all 60 cell lines, read-out: GI50 Mean): 1650 nM
- GI50 ([1]; mean over Breast Cancer panel, read-out: GI50 Mean): 1530 nM
- GI50 ([1]; mean over CNS Cancer panel, read-out: GI50 Mean): 1570 nM
- GI50 ([1]; mean over Colon Cancer panel, read-out: GI50 Mean): 1640 nM
- GI50 ([1]; mean over Leukemia panel, read-out: GI50 Mean): 1710 nM
- GI50 ([1]; mean over Melanoma panel, read-out: GI50 Mean): 1620 nM
- GI50 ([1]; mean over Non-small Cell Lung Cancer panel, read-out: GI50 Mean): 1800 nM
- GI50 ([1]; mean over Ovarian Cancer panel, read-out: GI50 Mean): 1770 nM
- GI50 ([1]; mean over Prostate Cancer panel, read-out: GI50 Mean): 1580 nM
- GI50 ([1]; mean over Renal Cancer panel, read-out: GI50 Mean): 1630 nM
- GI50 ([1]; on almost all cell lines, five-dose screen, read-out: GI50): < 2000 nM
- GI50 (SF-295): 1780 nM
- GI50 (NCI-H322M): 2240 nM
- GI50 (A498): 1620 nM
- GI50 (SN12C): 2090 nM
- GI50 (RPMI-8226): 2000 nM
- GI50 (MALME-3M): 1580 nM
- GI50 (786–0): 1480 nM
- GI50 (MCF7): 1550 nM
- GI50 (UO-31): 1580 nM
- GI50 (CAKI-1): 1480 nM
- GI50 (KM12): 1740 nM
- GI50 (OVCAR-8): 1820 nM
- GI50 (SF-539): 1580 nM
- GI50 (RXF 393): 1350 nM
- GI50 (NCI-H522): 1700 nM
- GI50 (DU-145): 1580 nM
- GI50 (NCI-H23): 1910 nM
